Measured values published in US11564913B2, “Compositions and methods for treating cancer” (Children's Hospital Medical Center, priority 2019, dated 2023).

Assays:
LARG (DH/PH) = target: T1, LARG (DH/PH) (Homo sapiens, UniProt Q9NZN5); assay: Microscale thermophoresis (MST) binding; details: no saturation at highest concentration tested, read-out: Kd, best estimate
T1 construct: the catalytic domain (DH/PH) of the RhoGEF LARG served as negative control; MBP; made in house
Description: FIG. 14: IODVA1 targets Vav3 in vitro and in vivo. (A) Ba/F3 cells expressing empty vector Mieg3 or p190-BCR-ABL1 were treated with vehicle control or IODVA1 (IO1, 3 μM) for 30 min and incubated with GST-Rac and glutathione beads. Beads were washed and the protein complexes were separated on SDS-PAGE and immunoblotted for pVav3. Input Vav3 was used as control. (B) Binding affinity (Kd) between IODVA1 and Vav3 (green), LARG (brown), and RacGDP (blue). […] Error bars=SD; N=3. (C) Quantification of the average number of colonies made by bone marrow wild-type (black) and Vav3^−/− (lilac) p190-BCR-ABL1 leukemic cells treated with vehicle control or IODVA1 (IO1, 1 and 3 μM) (* p≤0.05; ** p≤0.01; *** p≤0.001; ns, not significant). (D) Representative histogram data of the cell cycle analysis of wild-type (black and grey bars) and Vav3^−/− (dark and light lilac) bone marrow cells expressing p190-BCR-ABL and treated with vehicle control or IODVA1 (IO1, 3 μM) for 20 h. (E) Quantification by densitometry of the pVav3 band from FIG. 14A. […]
To test this hypothesis, we measured its binding affinity (Kd) to recombinant Vav3 and Rac1 using microscale thermophoresis (MST); the catalytic domain (DH/PH) of the RhoGEF LARG served as negative control. […] Second, like Vav3, LARG contains a DH/PH domain responsible for the exchange activity such that any non-specific binding to this domain should be detected. […]

Nalm-1 cells = assay: Cell survival, trypan blue exclusion; type: cell-based
Description: (B) IODVA1-dependent survival curves of empty vector (red circles) or p190-BCR-ABL1 (black circles) expressing Ba/F3 cells and of Nalm-1 cells. […] (C) p190-BCR-ABL1 (grey line) or Mieg3 (black line) expressing Ba/F3 cells were allowed to grow for 1 day, treated with IODVA1 (IO1, 1 μM) for 1 day, and washed (black arrow). Cells were counted for 7 days using trypan blue exclusion. (D) Ba/F3 cells stably expressing p190-BCR-ABL1 were subjected to colony formation assay in soft agar (0.25% Noble Agar in RPMI/FBS/IL-3) in the presence of DMSO or IODVA1 (1 or 10 μM). Colonies were allowed to form for 10 days then stained with iodonitrotetrazolium (1 mg/mL). Data are representative of at least three independent experiments in triplicates. Note the smaller colony size in 1 μM IODVA1 treatment group. (E) Leukemic burden (%) of treated mice before treatment (left upper panel) and at the indicated treatment time was analyzed by flow cytometry of bone marrow aspirates as population containing B220^+/CD43^+ pro-B cells. (F) Count (%) of residual leukemic (EGFP^+-BCR-ABL1) cells in peripheral blood at weeks 3 and 5 for the secondary transplant mice from FIG. 1D. […]
IODVA1 specifically targets BCR-ABL B-ALL cells in vitro. […] We then assessed survival of p190-BCR-ABL-transformed CD34^+ cells in the presence of IODVA1 by trypan blue exclusion. […]

T1 sequence (Q9NZN5 765-1138 limits assumed): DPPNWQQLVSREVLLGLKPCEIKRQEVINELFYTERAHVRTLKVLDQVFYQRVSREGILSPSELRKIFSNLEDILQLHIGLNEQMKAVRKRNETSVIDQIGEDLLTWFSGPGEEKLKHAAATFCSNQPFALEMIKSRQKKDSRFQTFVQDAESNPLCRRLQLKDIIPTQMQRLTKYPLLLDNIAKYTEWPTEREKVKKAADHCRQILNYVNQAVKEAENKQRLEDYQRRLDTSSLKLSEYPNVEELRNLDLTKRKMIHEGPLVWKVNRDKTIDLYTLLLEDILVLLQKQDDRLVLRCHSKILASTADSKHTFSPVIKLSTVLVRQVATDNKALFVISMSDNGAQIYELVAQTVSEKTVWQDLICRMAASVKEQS

For `OC1(c2ccccn2)N=C(Nc2nc3ccccc3[nH]2)N=C1c1ccccn1` (centres unmarked) [IODVA1, (Z)-2-((1H-benzo[d]imidazol-2-yl)imino)-4,5-di(pyridin-2-yl)-2,5-dihydro-1H-imidazol-5-ol], the Kd (LARG (DH/PH)) was roughly 7.7 µM and the EC50 (Nalm-1 cells) was 0.68 µM.
